Values quoted from earlier work as cited in US20230277473A1 (priority 2023, published 2023).

Experiments:
[1] = in vivo

half-life [1] [h]	SMILES	solubility in water
21	Cc1nc2n(c(=O)c1CCN1CCC(c3noc4cc(F)ccc34)CC1)CCCC2O (centres unmarked) [9-hydroxyrisperidone]	–
–	Cc1nc2n(c(=O)c1CCN1CCC(c3noc4cc(F)ccc34)CC1)CCCC2 [RPD, risperidone]	almost insoluble in water
